According to patent US20040142979A1, “Heteroarylsulfonylmethyl hydroxamic acids and amides and their use as protease inhibitors” (priority 2002, published 2004):

Columns and labels:
Human recombinant MMP-13 = biological target: T1, Human recombinant MMP-13 (Homo sapiens, UniProt P45452); assay: In vitro MMP inhibition analysis (fluorogenic peptide substrate), MMP-13; format: biochemical; conditions: human recombinant enzyme; 4 μM substrate (A); apparent Ki without substrate correction
T1 construct: made in house; host or cells: baculovirus / insect cells
Protocol: (§1) Several compounds and salts were analyzed in an in vitro assay to determine their ability to inhibit the MMP cleavage of peptide substrates. Inhibition constant (Ki) were calculated from the assayed compound-MMP interactions.
(§2) Human recombinant MMP-1, MMP-2, MMP-9, MMP-13, and MMP-14 were used in this assay. All enzymes were prepared in Assignee's laboratories following usual laboratory procedures. Protocols for the preparation and use of these enzymes are available in the scientific literature. See, e.g., Enzyme Nomenclature (Academic Press, San Diego, Calif., 1992) (and the citations therein). See also, Freije et al., J. Biol. Chem., 269(24), 16766-16773 (1994).
The MMP-13 was obtained as a proenzyme from a full-length cDNA clone using baculovirus, as described by V. A. Luckow, “Insect Cell Expression Technology,” Protein Engineering: Principles and Practice, pp. 183-218 (edited by J. L. Cleland et al., Wiley-Liss, Inc., 1996). The expressed proenzyme was first purified over a heparin agarose column, and then over a chelating zinc chloride column. The proenzyme was then activated by APMA for use in the assay. […] See also, O'Reilly et al, Baculovirus Expression Vectors: A Laboratory Manual (W. H. Freeman and Co., New York, N.Y., 1992). See also, King et al., The Baculovirus Expression System: A Laboratory Guide (Chapman & Hall, London, England, 1992).
(§3) All MMPs were activated using 4-aminophenylmercuric acetate (“APMA”, Sigma Chemical, St. Louis, Mo.) or trypsin. MMP-9 also was activated using human recombinant MMP-3 (purified in Assignee's laboratory following standard cloning and purification techniques).
(§4) The following fluorogenic, methoxycoumarin-containing polypeptide substrate (A) was used in the MMP inhibition assays:
(§5) MCA-ArgProLeuGlyLeuDpaAlaArgGluArgNH2 (A)
(§6) “MCA” is 7-methoxycoumarin-4-yl acetyl. Substrate (A) was prepared Assignee's laboratory. In the absence of MMP inhibitory activity, the substrate is cleaved at the Gly-Leu peptide bond. This cleavage separates the highly fluorogenic peptide from the 2,4-dinitrophenyl quencher, thus resulting in increase of fluorescent intensity.
(§7) The stock solutions of the assayed compounds and salts were prepared in 1% dimethyl sulfoxide (DMSO). These stock solutions were diluted in Buffer A (100 mM Tris-HCl, 100 mM NaCl, 10 mM CaCl2, 0.05% polyoxyethylene 23 lauryl ether, pH 7.5) to obtain solutions with different compound concentrations, i.e., assay solutions with different concentrations of the assayed MMP inhibitory compound. The experiment controls contained the same amount of Buffer A/DMSO as the assayed sample, but contained none of the tested compound or salt.
The assays from which the Ki determinations were made were performed as follows. The assayed compound samples were incubated in separate wells of untreated white polystyrene plates (Nunc Nalgene International, Rochester, N.Y.), and analyzed on a Tecan SpectraFlour Plus plate reader. The excitation wavelength was 330 nm, and the emission wavelength -420 nm. All samples (assayed compounds and controls) were incubated in separate plate wells at room temperature for 1 hr in the presence of 4 μM of MMP substrate (A). In the absence of MMP inhibitory activity, substrate (A) was cleaved at the Gly-Leu bond resulting in an increase of relative fluorescence. Inhibition was observed as a reduced rate of this increase in relative fluorescence. […] This protocol is a modification of method by Knight et al., FEBS Lett., 296(3), 263-266 (1992). Apparent inhibitory constants were determined by non-linear regression of reaction velocity as a function of inhibitor and enzyme concentration using Morrison's equation, as described by Kuzmic, P., et al., Anal. Biochem., 286(1):45-50 (2000). […] Since the substrate concentration was chosen to be at or below the Km, the apparent Ki's from this analysis were reported as Ki's without correction for the influence of substrate.
All Ki values in Table 3 are given in nM units.

Human recombinant MMP-14 = biological target: T2, Human recombinant MMP-14 (Homo sapiens, UniProt P50281); assay: In vitro MMP inhibition analysis (fluorogenic peptide substrate), MMP-14; format: biochemical; conditions: human recombinant catalytic domain; 4 μM substrate (A); apparent Ki without substrate correction
T2 construct: The catalytic domain enzyme was expressed in E. Coli inclusion bodies; made in house
Protocol: as §1, §2
The MMP-14 full length cDNA was provided by Dr. Gregory Goldberg of Washington University (St. Louis, Mo.). The catalytic domain enzyme was expressed in E. Coli inclusion bodies, solubilized in urea, purified on a preparative […] reverse phase HPLC column, and then refolded in the presence of zinc acetate and purified for use.
as §3, §4, §5, §6, §7
The assays from which the Ki determinations were made were performed as follows. The assayed compound samples were incubated in separate wells of untreated white polystyrene plates (Nunc Nalgene International, Rochester, N.Y.), and analyzed on a Tecan SpectraFlour Plus plate reader. The excitation wavelength was 330 nm, and the emission wavelength -420 nm. All samples (assayed compounds and controls) were incubated in separate plate wells at room temperature for 1 hr in the presence of 4 μM of MMP substrate (A). In the absence of MMP inhibitory activity, substrate (A) was cleaved at the Gly-Leu bond resulting in an increase of relative fluorescence. Inhibition was observed as a reduced rate of this increase in relative fluorescence. […] This protocol is a modification of method by Knight et al., FEBS Lett., 296(3), 263-266 (1992). Apparent inhibitory constants were determined by non-linear regression of reaction velocity as a function of inhibitor and enzyme concentration using Morrison's equation, as described by Kuzmic, P., et al., Anal. Biochem., 286(1):45-50 (2000). Modifications were made in the non-linear regression method to allow a common control reaction rate and effective enzyme concentration to be shared between all dose-response relationships on a given assay plate. Since the substrate concentration was chosen to be at or below the Km, the apparent Ki's from this analysis were reported as Ki's without correction for the influence of substrate.
The above protocols were used to determine MMP inhibition Ki constants for the compounds in Examples 1, 2, and 4-42 above. All Ki values in Table 3 are given in nM units.

Row | Ki (Human recombinant MMP-13) [nM] | Ki (Human recombinant MMP-14) [nM] | Structure (SMILES)
1 | 447 | > 10000 | CN(C(=O)c1ccc(-c2ccc(S(=O)(=O)C3(C(=O)NO)CCOCC3)cn2)cc1)c1ccccc1 [Example 78]
2 | 0.192 | 1850 | O=C(NO)C1(S(=O)(=O)c2ccc(-c3ccc(OC(F)(F)C(F)F)cc3)nc2)CCOCC1 [Example 48]
3 | 1.54 | 707 | O=C(NO)C1(S(=O)(=O)c2ccc3nc(-c4ccc(F)c(F)c4)sc3c2)CCOCC1 [Example 60]
4 | 1.59 | > 10000 | O=C(Cc1ccc(-c2ccc(S(=O)(=O)C3(C(=O)NO)CCOCC3)cn2)cc1)N1CCCCC1 [Example 72]
5 | 5.59 | > 10000 | CCCCNC(=O)c1ccc(-c2ccc(S(=O)(=O)C3(C(=O)NO)CCOCC3)cn2)cc1 [Example 76]
6 | 0.588 | 927 | O=C(NO)C1(S(=O)(=O)c2ccc3nc(-c4ccc(Cl)s4)sc3c2)CCOCC1 [Example 59]
7 | 18.8 | > 10000 | CCCCNC(=O)Cc1ccc(-c2ccc(S(=O)(=O)C3(C(=O)NO)CCOCC3)cn2)cc1 [Example 73]
8 | 229 | > 10000 | CC(C)CN(C)C(=O)c1ccc(-c2ccc(S(=O)(=O)C3(C(=O)NO)CCOCC3)cn2)cc1 [Example 82]
9 | 0.293 | 3600 | O=C(NO)C1(S(=O)(=O)c2ccc3nc(-c4ccc(SC(F)(F)F)cc4)sc3c2)CCOCC1 [Example 67]
10 | 10.3 | 2820 | O=C(NO)C1(S(=O)(=O)c2ccc(-c3ccc(C(F)(F)F)cn3)s2)CCOCC1 [Example 50]
11 | 1.19 | 3490 | CCCCCc1ccc(-c2ccc(S(=O)(=O)C3(C(=O)NO)CCOCC3)cn2)cc1 [Example 45]
12 | 264 | > 10000 | CN(C(=O)c1ccc(-c2ccc(S(=O)(=O)C3(C(=O)NO)CCOCC3)cn2)cc1)c1ccc(OC(F)(F)F)cc1 [Example 81]
13 | 0.275 | 3330 | O=C(NO)C1(S(=O)(=O)c2ccc3nc(-c4ccc(OC(F)(F)F)cc4)sc3c2)CCOCC1 [Example 51]
14 | 2.94 | > 10000 | O=C(NO)C1(S(=O)(=O)c2ccc3nc(-c4ccc(F)cc4F)sc3c2)CCOCC1 [Example 61]
15 | 577 | 3150 | O=C(NO)C1(S(=O)(=O)c2ccc3c(c2)sc2nc(-c4ccccc4)cn23)CCOCC1 [Example 83]
16 | 22.1 | 3830 | O=C(NO)C1(S(=O)(=O)c2ccc3nc(-n4cnc(-c5ccccc5)c4)sc3c2)CCOCC1 [Example 64]
17 | 0.309 | 4230 | COCCN1CCC(C(=O)NO)(S(=O)(=O)c2ccc3nc(-c4ccc(OC(F)(F)F)cc4)sc3c2)CC1 [Example 63]
18 | 1.58 | > 10000 | CCCCc1ccc(C(=O)C2CCN(c3nc4ccc(S(=O)(=O)C5(C(=O)NO)CCOCC5)cc4s3)CC2)s1 [Example 52]
19 | 0.79 | 671 | O=C(NO)C1(S(=O)(=O)c2ccc(-c3ccc(OC(F)(F)F)cc3)nc2)CCOCC1 [Example 84]

Row | Ki (Human recombinant MMP-13) [nM] | Ki (Human recombinant MMP-14) [nM] | Structure (SMILES)
20 | 0.306 | 2130 | O=C(NO)C1(S(=O)(=O)c2ccc(-c3ccc(OC(F)(F)C(F)F)cc3)nc2)CCOCC1 [Example 47]
21 | 2.73 | > 10000 | CC(C)Cc1ncc(-c2nc3ccc(S(=O)(=O)C4(C(=O)NO)CCOCC4)cc3s2)s1 [Example 54]
22 | 177 | > 10000 | O=C(NO)C1(S(=O)(=O)c2ccc3nc(-c4cccc(C(F)(F)F)c4)sc3c2)CCOCC1 [Example 55]
23 | 1.93 | > 10000 | CC(C)CN(C)C(=O)Cc1ccc(-c2ccc(S(=O)(=O)C3(C(=O)NO)CCOCC3)cn2)cc1 [Example 71]
24 | 0.127 | 466 | CCCCOc1ccc(-c2ccc(S(=O)(=O)C3(C(=O)NO)CCOCC3)s2)cc1 [Example 43]
25 | 0.314 | > 10000 | CCCc1ccc(-c2nc3ccc(S(=O)(=O)C4(C(=O)NO)CCOCC4)cc3s2)cc1 [Example 53]
26 | 0.169 | 852 | O=C(NO)C1(S(=O)(=O)c2ccc(-c3ccc(OCC(F)(F)F)cc3)nc2)CCOCC1 [Example 46]
27 | 1.91 | > 10000 | CCCCN(C)C(=O)Cc1ccc(-c2ccc(S(=O)(=O)C3(C(=O)NO)CCOCC3)cn2)cc1 [Example 74]
28 | 0.336 | 2500 | CCc1ccc(-c2nc3ccc(S(=O)(=O)C4(C(=O)NO)CCOCC4)cc3s2)cc1 [Example 58]
29 | 0.134 | 429 | O=C(NO)C1(S(=O)(=O)c2ccc(-c3ccc(OC(F)(F)C(F)F)cc3)s2)CCOCC1 [Example 44]
30 | 0.721 | 2450 | O=C(NO)C1(S(=O)(=O)c2ccc(-c3ccc(CCC(F)(F)F)cc3)nc2)CCOCC1 [Example 68]
31 | 1.36 | 355 | O=C(NO)C1(S(=O)(=O)c2ccc3nc(-c4ccsc4)sc3c2)CCOCC1 [Example 62]
32 | 1.8 | > 10000 | CCCCc1ccc(C(=O)C2CCN(c3ccc(S(=O)(=O)C4(C(=O)NO)CCOCC4)cn3)CC2)s1 [Example 70]
33 | 140 | > 10000 | CN(C(=O)Cc1ccc(-c2ccc(S(=O)(=O)C3(C(=O)NO)CCOCC3)cn2)cc1)c1ccc(OC(F)(F)F)cc1 [Example 75]
34 | 1.05 | 686 | O=C(NO)C1(S(=O)(=O)c2ccc3nc(-c4ccc5c(c4)OCO5)sc3c2)CCOCC1 [Example 65]
35 | 0.384 | 2160 | O=C(NO)C1(S(=O)(=O)c2ccc3nc(-c4ccc(C(F)(F)F)cc4)sc3c2)CCOCC1 [Example 57]
36 | 3.43 | 798 | O=C(NO)C1(S(=O)(=O)c2ccc3nc(N4CCC(Oc5ccc(OC(F)(F)F)cc5)CC4)sc3c2)CCOCC1 [Example 56]
37 | 0.822 | 9250 | O=C(NO)C1(S(=O)(=O)c2ccc(-c3ccc(CCC(F)(F)C(F)(F)F)cn3)s2)CCOCC1 [Example 49]
38 | 607 | > 10000 | CCN(CC)C(=O)c1ccc(-c2ccc(S(=O)(=O)C3(C(=O)NO)CCOCC3)cn2)cc1 [Example 79]
